Assay results published in US20110236409A1, “O[…] FROM VARIABLE ANTIGENS, T CELL POPULATIONS AND USES THEREOF” (Helmholtz Zentrum München - Deutsches Forschungszentrum für …, priority 2008, published 2011).

Tests used:
Assay type in all cases: cell-based, human
[1] = test system: Peripheral blood mononuclear cells (PBMC) of HIV-1 infected individuals; test: Ex vivo ELISPOT assay for single-cell IFN-γ release, HIV-infected individuals; settings: patient HSR-028
Method: Peripheral blood mononuclear cells (PBMC) were seeded in duplicate at 2×10^5 cells/well in 96-well plates (MAIPS4510; Millipore, Bedford, Mass.) precoated with anti-IFN-γ capture monoclonal antibody (B-B1; Diaclone, Besancon, France) and stimulated with the different peptide pools at the fixed concentration of 3 μg/ml of each peptide for 18 h at 37° C. in air plus 5% CO2. Biotinylated anti-IFN-γ detection monoclonal antibody (B-G1; Diaclone) was added for 2 h, followed by the addition of streptavidin-alkaline phosphatase conjugate (Amersham Pharmacia Biotech Europe GmbH, Freiburg, Germany) for 1 h. A chromogenic substrate (nitroblue tetrazolium-BCIP [5-bromo-4-chloro-3-indolylphosphate]; Sigma, St. Louis, Mo.) was added for 10 min. The individual spots were counted by using an Automated ELISA-Spot Assay Video Analysis System, Eli-Scan with the software Eli.Analyse V4.2 (A.EL.VIS, Hannover, Germany).
The responses were empirically scored as positive if the test wells contained a mean number of spot-forming cells (SFC) higher than the mean value plus two standard deviations in negative control wells, and if the number of SFC per million PBMC in stimulated wells (subtracted of the values of negative control wells) was ≧50. PBMC in medium alone were used to establish the negative control background, that had to be not higher than 50 SFC per million of cells (10 SFC/well). […]

[2] = test system: Nef specific CD4 and CD8 T-cells (PBMC); test: Intracellular cytokine staining (IFN-γ) of CD4 and CD8 T cells, Nef peptides; settings: subject V4; B8 restricted
Method: (§1) After thawing, PBMC were washed trice at room temperature in complete cell culture medium and plated in round bottom 96 wells/plates. All the incubations were carried out in round bottom 96 wells/plates to allow high throughput processing of the probes. 10^6 PBMC/well were incubated with 1.3 μg/ml of antibody to CD28 and with 1.3 μg/ml of antibody to CD49d (Becton Dickinson, Heidelberg, Germany) together with defined peptide pools. For each individual, a sample without peptides was included to calculate the background staining. Following one-hour incubation, 10 μg/ml of Brefeldin A were added to the cell suspension and the incubation carried out for additional 4 hours. Stimulated cells were then resuspended in Stain Buffer (0.2% BSA, 0.09% Na Azide in DPBS; Becton Dickinson) and incubated with the photoreactive fluorescent label ethidium monoazide (EMA; Molecular Probes, Leiden, The Netherlands) used as viability dye. After washing, cells were fixed and permeabilized using the BD Cytofix/Cytoperm™ Kit, (Becton Dickinson). […]
(§2) Following background subtraction, the threshold level was calculated using the 90 percentile of the negative values. […]
In this way, the authors could establish whether the higher number of individual responses measured with the new set of overlapping peptides was restricted to the CD8 compartment or interested also CD4 T-cell recognition.

[3] = test system: CD45RA+ IFN-γ− IL-2− MIP-1β+ CD8 T-cells; test: Polychromatic intracellular cytokine staining, detection of CD45RA+ IFN-γ− IL-2− MIP-1β+ CD8 T-cells; settings: subject V4
Method: as §1, with “Dickinson). Then, the following fluorochrome-conjugated antibodies were added to the cell suspension: CD3-AmCyan, CD4-PerCP, CD45RA-PECy7, CD154-FITC, IFNγ-A1700, IL2-APC and MIP1β-PE from Becton Dickinson and CD8-PacB from DAKO (Hamburg, Germany).” for “Dickinson).”
as §2

[4] = test system: T-cell response of HIV-1 infected individuals; test: Mapping of Tat- and Nef-specific T-cell responses to single VOPSD peptides in cohorts of HIV-1 infected individuals (Elite Controllers)
[5] = Controllers Upon Suspension (CUS)

EPVDPRLEPWKHPGSQPKTA [20mer homolog, 20mer homolog of VOPSD Tat peptide 1 from the standard Tat 20mer set, reference compound]
peptide concentration of maximal recognition (single peptide titration) [1]: recognized only at the highest concentration tested

FLKEKGGL
CD8 T-cell response to the epitope [2]: strong CD8 T-cell response | detection of CD45RA+ IFN-γ− IL-2− MIP-1β+ CD8 T-cells [3]: detected

LEPWKHPGSQPKTACTNCY [peptide 2.2]
individuals recognizing the peptide ([4]; Elite Controllers (EC)): 5/9

MEPVDPRLEPW [VOPSD Tat peptide 1]
peptide concentration of maximal recognition (single peptide titration) [1]: 0.5 µM

VLEWRFDSRLAFHHVAREL [peptide 5.29]
individuals recognizing the peptide ([4]; Elite Controllers (EC)): 7/13 | immunodominant response in groups other than EC ([4]; all other groups of HIV-1 infected individuals): not for any of the all the other groups of HIV-1 infected individuals

KKCCFHCQVCFITKALGI [peptide 2.5]
individuals recognizing the peptide ([4]; CHI w T): 1/15 | individuals recognizing the peptide [4, 5]: 1/5 | individuals recognizing the peptide ([4]; Elite Controllers (EC)): 4/13 | individuals recognizing the peptide ([4]; LTNP): 1/6

QVCFITKALGISYGR [peptide 2.6]
individuals recognizing the peptide ([4]; CHI w T): 1/15 | individuals recognizing the peptide ([4]; CHI w/o T): 1/13 | individuals recognizing the peptide [4, 5]: 1/5 | individuals recognizing the peptide ([4]; Elite Controllers (EC)): 7/13
